Test results from PubChem BioAssay AID330 (DTP/NCI, 2004).
“And” between values parts separate entries of the source, which are not always exact repeats. Identical values can stand only once. Inconclusive results and toxic doses are left out. How the source made its calls: active means survival T/C of 150% or more; inactive means T/C below 125% in these data.

Test system: P388 leukemia ip, CD2F1 mice, survival T/C
Assay: NCI In Vivo Anticancer Drug Screen. Data for tumor model P388 Leukemia (intraperitoneal) in CD2F1 (CDF1) mice
Conditions: endpoint: median survival time, higher = longer survival
Procedure, shortened: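 Mice carrying the transplanted tumor received test compound or vehicle. Survival was recorded in each group, and the value is the treated-group measurement divided by that of the vehicle-treated control group.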

[1] = dose: 12.5 mg/kg/injection, schedule: Q01DX009 (ip), vehicle: saline with Tween-80
[2] = dose: 25.0 mg/kg/injection, schedule: Q01DX009 (ip), vehicle: saline with Tween-80
[3] = dose: 50.0 mg/kg/injection, schedule: Q01DX009 (ip), vehicle: saline with Tween-80
[4] = dose: 50.0 mg/kg/injection, schedule: Q01DX009 (ip), vehicle: saline
[5] = dose: 100.0 mg/kg/injection, schedule: Q01DX009 (ip), vehicle: saline
[6] = dose: 1.56 mg/kg/injection, schedule: Q01DX009 (ip), vehicle: saline with Tween-80
[7] = dose: 3.12 mg/kg/injection, schedule: Q01DX009 (ip), vehicle: saline with Tween-80
[8] = dose: 6.25 mg/kg/injection, schedule: Q01DX009 (ip), vehicle: saline with Tween-80
[9] = dose: 50.0 mg/kg/injection, schedule: Q01DX005 (ip), vehicle: Klucel (hydroxypropylcellulose) (HPC)
[10] = dose: 100.0 mg/kg/injection, schedule: Q01DX005 (ip), vehicle: Klucel (hydroxypropylcellulose) (HPC)
[11] = dose: 200.0 mg/kg/injection, schedule: Q01DX005 (ip), vehicle: Klucel (hydroxypropylcellulose) (HPC)
[12] = dose: 60.0 mg/kg/injection, schedule: Q01DX005 (ip), vehicle: saline with Tween-80
[13] = dose: 120.0 mg/kg/injection, schedule: Q01DX005 (ip), vehicle: saline with Tween-80
[14] = dose: 240.0 mg/kg/injection, schedule: Q01DX005 (ip), vehicle: saline with Tween-80

Measured: T/C

CON/C=C(C#N)/C=C/C=Nc1ccc(S(=O)(=O)N=C(N)N)cc1
inactive: [1] 98 % of control | [2] 93 % of control | [3] 87 % of control and 92 % of control

CC1=C2C(=CC(C)(C)[C@@H]2O)C(=O)[C@](C)(O)C12CC2
inactive: dose: 0.26 mg/kg/injection, schedule: Q01DX010 (ip), vehicle: saline 110 % of control | dose: 0.4 mg/kg/injection, schedule: Q01DX010 (ip), vehicle: saline 110 % of control | dose: 0.6 mg/kg/injection, schedule: Q01DX010 (ip), vehicle: saline 115 % of control | dose: 45.0 micrograms/kg/injection, schedule: Q01DX010 (ip), vehicle: saline 100 % of control | dose: 90.0 micrograms/kg/injection, schedule: Q01DX010 (ip), vehicle: saline 104 % of control | dose: 180.0 micrograms/kg/injection, schedule: Q01DX010 (ip), vehicle: saline 113 % of control

O=[N+]([O-])c1cc2c(cc1Br)C1C(C3C2C2(Cl)C(Cl)=C(Cl)C3(Cl)C2(Cl)Cl)C2(Cl)C(Cl)=C(Cl)C1(Cl)C2(Cl)Cl (stereo not given)
inactive: [4] 107 % of control | [5] 105 % of control | dose: 200.0 mg/kg/injection, schedule: Q01DX009 (ip), vehicle: saline 108 % of control

CCSc1cccc2nncn12
inactive: dose: 50.0 mg/kg/injection, schedule: Q01DX001 (ip), vehicle: saline 103 % of control | dose: 100.0 mg/kg/injection, schedule: Q01DX001 (ip), vehicle: saline 100 % of control | dose: 200.0 mg/kg/injection, schedule: Q01DX001 (ip), vehicle: saline 100 % of control

CCCCCCCCCCCCCCCCOc1ccc(-c2cc(Cl)c3cc(S(=O)(=O)F)ccc3n2)cc1S(=O)(=O)F
inactive: [3] 86 % of control | dose: 50.0 mg/kg/injection, schedule: Q04DX003 (ip), vehicle: saline with Tween-80 90 % of control | dose: 200.0 mg/kg/injection, schedule: Q01DX009 (ip), vehicle: saline with Tween-80 90 % of control | dose: 200.0 mg/kg/injection, schedule: Q04DX003 (ip), vehicle: saline with Tween-80 90 % of control

CCCCCCCCCCCCCCCCONc1ccnc(=O)[nH]1
inactive: dose: 37.5 mg/kg/injection, schedule: Q01DX001 (ip), vehicle: Klucel (hydroxypropylcellulose) (HPC) 91 % of control | dose: 75.0 mg/kg/injection, schedule: Q01DX001 (ip), vehicle: Klucel (hydroxypropylcellulose) (HPC) 91 % of control

S=c1nc[nH]c2nc(-c3ccccc3)[nH]c12
inactive: dose: 12.5 mg/kg/injection, schedule: Q01DX005 (ip), vehicle: other 101 % of control | dose: 25.0 mg/kg/injection, schedule: Q01DX005 (ip), vehicle: other 100 % of control | dose: 50.0 mg/kg/injection, schedule: Q01DX005 (ip), vehicle: other 101 % of control | dose: 100.0 mg/kg/injection, schedule: Q01DX005 (ip), vehicle: other 92 % of control | dose: 200.0 mg/kg/injection, schedule: Q01DX005 (ip), vehicle: other 92 % of control

Oc1ccccc1C=Nc1cccnc1
inactive: [1] 96 % of control | [2] 101 % of control | [3] 87 % of control

COc1ccc(OCCC(=O)O)cc1
inactive: [6] 109 % of control | [7] 112 % of control | [8] 112 % of control and 86 % of control | [2] 105 % of control | [3] 102 % of control

O=c1cc(-c2ccc3ccccc3n2)oc2ccc(Cl)cc12
inactive: dose: 10.0 mg/kg/injection, schedule: Q01DX009 (ip), vehicle: saline 107 % of control | dose: 20.0 mg/kg/injection, schedule: Q01DX009 (ip), vehicle: saline 93 % of control | dose: 40.0 mg/kg/injection, schedule: Q01DX009 (ip), vehicle: saline 89 % of control

CC12CCCC(O1)C(C)(C)O2 (stereo not given)
inactive: [4] 99 % of control | [5] 89 % of control

CCCCCCCCCCCC(=O)OCCN1CCN(CCCN2c3ccccc3Sc3ccc(C(F)(F)F)cc32)CC1
inactive: dose: 0.78 mg/kg/injection, schedule: Q01DX009 (ip), vehicle: saline with Tween-80 108 % of control | [6] 104 % of control | [7] 105 % of control and 93 % of control | [8] 107 % of control | [1] 101 % of control and 107 % of control | [2] 106 % of control | [3] 114 % of control | dose: 100.0 mg/kg/injection, schedule: Q01DX009 (ip), vehicle: saline with Tween-80 97 % of control

CCSC(SCC)C(NC(C)=O)C(O)C(O)C(O)CO (stereo not given)
inactive: dose: 12.5 mg/kg/injection, schedule: Q01DX009 (ip), vehicle: water 114 % of control | dose: 25.0 mg/kg/injection, schedule: Q01DX009 (ip), vehicle: water 113 % of control | dose: 50.0 mg/kg/injection, schedule: Q01DX009 (ip), vehicle: water 107 % of control | dose: 100.0 mg/kg/injection, schedule: Q01DX009 (ip), vehicle: water 109 % of control | dose: 200.0 mg/kg/injection, schedule: Q01DX009 (ip), vehicle: water 106 % of control

CC(=S)N(c1ccccc1)c1ccccc1
inactive: dose: 60.0 mg/kg/injection, schedule: Q01DX005 (ip), vehicle: Klucel (hydroxypropylcellulose) (HPC) 101 % of control | dose: 120.0 mg/kg/injection, schedule: Q01DX005 (ip), vehicle: Klucel (hydroxypropylcellulose) (HPC) 96 % of control | dose: 240.0 mg/kg/injection, schedule: Q01DX005 (ip), vehicle: Klucel (hydroxypropylcellulose) (HPC) 93 % of control

CCOC(=O)c1ccc(NC(N)=O)cc1
inactive: dose: 25.0 mg/kg/injection, schedule: Q01DX009 (ip), vehicle: other 101 % of control | dose: 50.0 mg/kg/injection, schedule: Q01DX009 (ip), vehicle: other 102 % of control | dose: 100.0 mg/kg/injection, schedule: Q01DX009 (ip), vehicle: other 98 % of control | dose: 200.0 mg/kg/injection, schedule: Q01DX009 (ip), vehicle: other 98 % of control | dose: 400.0 mg/kg/injection, schedule: Q01DX009 (ip), vehicle: other 93 % of control

N#CCOC1OC(CO)C(O)C(O)C1O (stereo not given)
inactive: [9] 100 % of control | [10] 99 % of control | [11] 99 % of control

OC1CN(c2ccccc2)CC1O (stereo not given)
inactive: [9] 105 % of control | [10] 96 % of control | [11] 97 % of control

CCO/C=C1/N=C(COc2ccc(Cl)cc2C)OC1=O
inactive: [12] 101 % of control | [13] 108 % of control | [14] 95 % of control

CC(C)(C)N1COC2CCCC21 (stereo not given)
inactive: dose: 12.5 mg/kg/injection, schedule: Q01DX005 (ip), vehicle: saline 108 % of control | dose: 25.0 mg/kg/injection, schedule: Q01DX005 (ip), vehicle: saline 100 % of control

CCSc1nc2ccc(N=C/C=C/c3ccccc3)cc2s1
inactive: dose: 50.0 mg/kg/injection, schedule: Q01DX009 (ip), vehicle: Klucel (hydroxypropylcellulose) (HPC) 110 % of control | dose: 100.0 mg/kg/injection, schedule: Q01DX009 (ip), vehicle: Klucel (hydroxypropylcellulose) (HPC) 98 % of control | dose: 200.0 mg/kg/injection, schedule: Q01DX009 (ip), vehicle: Klucel (hydroxypropylcellulose) (HPC) 110 % of control

CCOc1cccc(/C=N\Nc2nc(=O)cc(C(=O)OC)s2)c1O
inactive: dose: 50.0 mg/kg/injection, schedule: Q01DX005 (ip), vehicle: saline with Tween-80 97 % of control | dose: 100.0 mg/kg/injection, schedule: Q01DX005 (ip), vehicle: saline with Tween-80 104 % of control | dose: 200.0 mg/kg/injection, schedule: Q01DX005 (ip), vehicle: saline with Tween-80 107 % of control

COC(=O)C1(CC(=O)c2ccc(Cl)cc2)NC(=S)NC(=O)C1C#N (stereo not given)
inactive: [12] 99 % of control | [13] 98 % of control | [14] 106 % of control
